This passage reports inhibition and IC50 results from patent US10093630B2, “Pyrazole compounds and methods of making and using same” (ABIDE THERAPEUTICS, INC., priority 2014, dated 2018).

The structures appear in SMILES notation.

Holding throughout (assay): In vitro competitive activity-based protein profiling (gel-based, FP-Rh or HT-01 probe)
Common to all, as to format: biochemical

In one test the target is T1, FAAH (Mus musculus, UniProt O08914).
T1 construct: Proteomes (mouse brain membrane fraction or cell lysates); from tissue; host or cells: mouse brain membrane fraction (or cell lysates, not specified)
T1 sequence (O08914 1-579): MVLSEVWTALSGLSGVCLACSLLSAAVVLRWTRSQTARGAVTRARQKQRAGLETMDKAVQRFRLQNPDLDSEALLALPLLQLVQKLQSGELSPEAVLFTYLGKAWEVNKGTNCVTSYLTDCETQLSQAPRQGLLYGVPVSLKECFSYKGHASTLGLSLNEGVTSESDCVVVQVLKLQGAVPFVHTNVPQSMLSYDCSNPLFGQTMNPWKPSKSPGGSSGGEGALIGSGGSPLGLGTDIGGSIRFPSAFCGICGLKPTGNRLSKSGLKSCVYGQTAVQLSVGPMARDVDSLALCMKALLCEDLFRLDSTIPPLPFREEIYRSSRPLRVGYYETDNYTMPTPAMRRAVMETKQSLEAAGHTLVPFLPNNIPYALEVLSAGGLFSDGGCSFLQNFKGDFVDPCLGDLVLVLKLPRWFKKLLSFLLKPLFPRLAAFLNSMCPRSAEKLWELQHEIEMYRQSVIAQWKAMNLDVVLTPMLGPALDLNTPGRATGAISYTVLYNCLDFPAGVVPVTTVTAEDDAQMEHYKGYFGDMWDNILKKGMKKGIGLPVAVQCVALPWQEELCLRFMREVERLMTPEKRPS
The note with it: for inhibition at 10 µM: 10 μM inhibitor, read-out: % Inhibition at 10 μM, B = FAAH; for IC50: mouse brain membrane fraction or cell lysates, 30 min preincubation at 37° C., read-out: Mouse (IC50 value, nM) FAAH; for inhibition at 1 µM: 1 μM inhibitor, read-out: % Inhibition at 1 μM, B = FAAH. The method, then:
(§1) In Vitro Competitive Activity-Based Protein Profiling.
(§2) Proteomes (mouse brain membrane fraction or cell lysates) (50 μL, 1.0 mg/mL total protein concentration) were preincubated with varying concentrations of inhibitors at 37° C. After 30 min, FP-Rh or HT-01 ([…], 50 μM in DMSO) was added and the mixture was incubated for another 30 min at 37° C. Reactions were quenched with SDS loading buffer (15 μL—4×) and run on SDS-PAGE. Following gel imaging, serine hydrolase activity was determined by measuring fluorescent intensity of gel bands corresponding to MAGL, ABHD6, FAAH, and PLA2G7 using ImageJ 1.43u software.

In another test the target is T2, ABHD6 (Mus musculus, UniProt Q8R2Y0).
T2 construct: Proteomes (mouse brain membrane fraction or cell lysates); from tissue; host or cells: mouse brain membrane fraction (or cell lysates, not specified)
T2 sequence (Q8R2Y0 1-336): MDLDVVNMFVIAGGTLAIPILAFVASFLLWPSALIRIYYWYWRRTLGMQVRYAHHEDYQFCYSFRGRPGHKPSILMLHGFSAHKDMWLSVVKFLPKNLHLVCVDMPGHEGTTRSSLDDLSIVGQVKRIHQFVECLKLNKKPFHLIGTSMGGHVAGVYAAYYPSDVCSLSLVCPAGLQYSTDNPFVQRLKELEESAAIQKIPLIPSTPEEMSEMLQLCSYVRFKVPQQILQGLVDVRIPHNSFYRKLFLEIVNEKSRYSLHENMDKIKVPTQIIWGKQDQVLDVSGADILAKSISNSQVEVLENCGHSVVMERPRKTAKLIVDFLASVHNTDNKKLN
The note with it: for inhibition at 10 µM: 10 μM inhibitor, read-out: % Inhibition at 10 μM, C = ABHD6; for IC50: mouse brain membrane fraction or cell lysates, 30 min preincubation at 37° C., read-out: Mouse (IC50 value, nM) ABHD6; for inhibition at 1 µM: 1 μM inhibitor, read-out: % Inhibition at 1 μM, C = ABHD6. The method, then:
as §1, §2

For the next test, the target named is T3, MAGL (Mus musculus, UniProt O35678).
T3 construct: Proteomes (mouse brain membrane fraction or cell lysates); from tissue; host or cells: mouse brain membrane fraction (or cell lysates, not specified)
T3 sequence (O35678 1-303): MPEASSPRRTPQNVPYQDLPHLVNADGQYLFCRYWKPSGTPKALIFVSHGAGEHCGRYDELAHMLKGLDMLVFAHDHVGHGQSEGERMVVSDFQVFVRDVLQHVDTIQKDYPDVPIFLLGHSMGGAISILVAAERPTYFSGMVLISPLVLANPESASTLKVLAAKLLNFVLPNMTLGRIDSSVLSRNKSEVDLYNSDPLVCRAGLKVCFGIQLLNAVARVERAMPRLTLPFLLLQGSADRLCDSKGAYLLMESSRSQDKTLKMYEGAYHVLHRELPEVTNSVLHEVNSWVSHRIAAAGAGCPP
The note with it: for inhibition at 10 µM: 10 μM inhibitor; for IC50: mouse brain membrane fraction or cell lysates, 30 min preincubation at 37° C., read-out: Mouse (IC50 value, nM) MAGL; for inhibition at 1 µM: 1 μM inhibitor. The method, then: as §1, §2

Consider `O=C(N1CCCC1)n1cc(-c2ccc(-c3ccccc3Cl)cc2)cn1` [Example 108, (4-(2′-Chloro-[1,1′-biphenyl]-4-yl)-1H-pyrazol-1-yl)(pyrrolidin-1-yl)methanone], for which the inhibition at 10 µM at FAAH was less than 25%; at ABHD6 it was more than 75%; on MAGL it was less than 25%.
As for `O=C(N1CCN(Cc2c(N3CCCC3)cccc2C(F)(F)F)CC1)n1cc(-c2ccccc2)cn1` [Example 109, (4-Phenyl-1H-pyrazol-1-yl)(4-(2-(pyrrolidin-1-yl)-6-(trifluoromethyl)benzyl)piperazin-1-yl)methanone], the inhibition at 10 µM on FAAH was more than 75%; at ABHD6, more than 75%; on MAGL, 25 to 75%.
With `Cc1cnn(C(=O)N2CCN(Cc3c(N4CCCC4)cccc3C(F)(F)F)CC2)c1` [Example 111, (4-Methyl-1H-pyrazol-1-yl)(4-(2-(pyrrolidin-1-yl)-6-(trifluoromethyl)benzyl)piperazin-1-yl)methanone], the inhibition at 10 µM on FAAH was 25 to 75%; at ABHD6, more than 75%; on MAGL it was more than 75%. Further, the IC50 on FAAH was more than 1000 nM; on ABHD6, 100 to 1000 nM; at MAGL it was 100 to 1000 nM.
As to `O=C(N1CCN(Cc2c(N3CCCC3)cccc2C(F)(F)F)CC1)n1cc(F)cn1` [Example 113, (4-Fluoro-1H-pyrazol-1-yl)(4-(2-(pyrrolidin-1-yl)-6-(trifluoromethyl)benzyl)piperazin-1-yl)methanone], the inhibition at 1 µM was 25 to 75% at FAAH, more than 75% on ABHD6 and more than 75% at MAGL. In addition, the inhibition at 10 µM on FAAH, on ABHD6 and at MAGL was more than 75% in each case. Besides, the concentration for half-maximal inhibition (IC50) on FAAH is more than 1000 nM; on ABHD6 it was 100 to 1000 nM; on MAGL it was less than 100 nM.
As for `Cc1ccccc1-c1cnn(C(=O)N2CCN(Cc3c(N4CCCC4)cccc3C(F)(F)F)CC2)c1` [Example 114, (4-(2-(Pyrrolidin-1-yl)-6-(trifluoromethyl)benzyl)piperazin-1-yl)(4-(o-tolyl)-1H-pyrazol-1-yl)methanone], on FAAH, the inhibition at 1 µM was less than 25% and the inhibition at 10 µM is 25 to 75%. Also, at ABHD6, the inhibition at 1 µM is more than 75%, the inhibition at 10 µM is more than 75% and the IC50 lay in the range of 100 to 1000 nM. On MAGL, this compound had an inhibition at 1 µM of less than 25% and an inhibition at 10 µM of less than 25%.
Regarding `Cc1cnn(C(=O)N2CCN(C(c3ccc(Cl)cc3)c3ccc(Cl)cc3)CC2)c1` [Example 117, (4-(Bis(4-chlorophenyl)methyl)piperazin-1-yl)(4-methyl-1H-pyrazol-1-yl)methanone], the inhibition at 1 µM on FAAH is less than 25%; on ABHD6, less than 25%; on MAGL it was more than 75%. In addition, the inhibition at 10 µM at FAAH was less than 25%; on ABHD6, more than 75%; on MAGL, more than 75%. Moreover, the 50% inhibitory concentration (IC50) was more than 1000 nM on FAAH, more than 1000 nM at ABHD6 and less than 100 nM on MAGL.
Take `O=C(N1CCN(C(c2ccc(Cl)cc2)c2ccc(Cl)cc2)CC1)n1cc(C(F)(F)F)cn1` [Example 118, (4-(Bis(4-chlorophenyl)methyl)piperazin-1-yl)(4-(trifluoromethyl)-1H-pyrazol-1-yl)methanone]: at FAAH, the inhibition at 1 µM is less than 25%, the inhibition at 10 µM is more than 75% and the IC50 is more than 1000 nM. Further, at ABHD6, the inhibition at 1 µM is more than 75%, the inhibition at 10 µM was more than 75% and the IC50 was in the range of 100 to 1000 nM. In addition, on MAGL, the inhibition at 1 µM was more than 75%, the inhibition at 10 µM is more than 75% and the IC50 is less than 100 nM.
With `O=C(N1CCN(C(c2ccc(Cl)cc2)c2ccc(Cl)cc2)CC1)n1cc(-c2ccccc2)cn1` [Example 119, (4-(Bis(4-chlorophenyl)methyl)piperazin-1-yl)(4-phenyl-1H-pyrazol-1-yl)methanone], the inhibition at 1 µM was less than 25% on FAAH, less than 25% on ABHD6 and 25 to 75% on MAGL. The inhibition at 10 µM is less than 25% on FAAH, more than 75% at ABHD6 and more than 75% on MAGL.
With `CC(C)c1cnn(C(=O)N2CCN(C(c3ccc(Cl)cc3)c3ccc(Cl)cc3)CC2)c1` [Example 120, (4-(Bis(4-chlorophenyl)methyl)piperazin-1-yl)(4-isopropyl-1H-pyrazol-1-yl)methanone], the inhibition at 1 µM on FAAH was less than 25%; at ABHD6 it was 25 to 75%; on MAGL, 25 to 75%. The inhibition at 10 µM at FAAH was less than 25%; on ABHD6 it was more than 75%; on MAGL, more than 75%.
Turning to `O=C(N1CCN(C(c2ccc(Cl)cc2)c2ccc(Cl)cc2)CC1)n1cc(F)cn1` [Example 121, (4-(Bis(4-chlorophenyl)methyl)piperazin-1-yl)(4-fluoro-1H-pyrazol-1-yl)methanone], at FAAH, the inhibition at 1 µM is less than 25%, the inhibition at 10 µM was more than 75% and the IC50 was more than 1000 nM. In addition, at ABHD6, the inhibition at 1 µM was less than 25%, the inhibition at 10 µM is more than 75% and the IC50 was more than 1000 nM. In addition, at MAGL, the inhibition at 1 µM is more than 75%, the inhibition at 10 µM is more than 75% and the half-maximal inhibitory concentration (IC50) is less than 100 nM.
Regarding `O=C(N1CCN(Cc2ccc(C(F)(F)F)cc2N2CCCC2)CC1)n1cc(Cl)cn1` [Example 125, (4-Chloro-1H-pyrazol-1-yl)(4-(2-(pyrrolidin-1-yl)-4-(trifluoromethyl)benzyl)piperazin-1-yl)methanone], the inhibition at 1 µM was less than 25% at FAAH, more than 75% on ABHD6 and more than 75% on MAGL. The concentration for half-maximal inhibition (IC50) on FAAH was more than 1000 nM; at ABHD6 it was 100 to 1000 nM; on MAGL it was less than 100 nM.
For the compound `O=C(N1CCN(Cc2ccc(C(F)(F)F)cc2N2CCCC2)CC1)n1cc(F)cn1` [Example 126, (4-Fluoro-1H-pyrazol-1-yl)(4-(2-(pyrrolidin-1-yl)-4-(trifluoromethyl)benzyl)piperazin-1-yl)methanone], the inhibition at 1 µM on FAAH, on ABHD6 and at MAGL was more than 75% in each case. Further, the IC50 on FAAH was 100 to 1000 nM; at ABHD6 it was 100 to 1000 nM; at MAGL it was less than 100 nM.
For the compound `CC(=O)N1CCCN(C(=O)n2cc(Cl)cn2)CC1` [Example 188, 1-(4-(4-Chloro-1H-pyrazole-1-carbonyl)-1,4-diazepan-1-yl)ethanone], the inhibition at 10 µM was less than 25% at FAAH, 25 to 75% at ABHD6 and less than 25% on MAGL.
With `CN1CCCN(C(=O)n2cc(Cl)cn2)CC1` [Example 190, (4-Chloro-1H-pyrazol-1-yl)(4-methyl-1,4-diazepan-1-yl)methanone], the inhibition at 10 µM at FAAH, on ABHD6 and on MAGL was less than 25% in each case.
In the case of `Cc1cnn(C(=O)N(C)CCN(C)S(C)(=O)=O)c1` [Example 196, N,4-Dimethyl-N-(2-(N-methylmethylsulfonamido)ethyl)-1H-pyrazole-1-carboxamide], the inhibition at 10 µM at FAAH, on ABHD6 and at MAGL was less than 25% each time.
